# Measured values as given in patent US12528837B2, “Aryl substituted polymyxin derivatives” (priority 2018, dated 2026).
# Where two headings read alike, the source gives them in different places. Where a SMILES comes first, the peptide text is derived from it. Bridges are numbered along the chain shown (N, C = ends). [ ]: non-standard residue; d: D form. The star is where a group is joined. X2 = NC[C@@H](CC(=O)*)c1cccc(-c2ccccc2)c1; X16 = NC[C@H](CC(=O)*)Cc1cccc(Cl)c1; X12 = NC[C@H](CC(=O)*)c1cccc(Br)c1; X11 = NC[C@H](CC(=O)*)c1ccccc1Cl; Dab = NCC[C@H](N)C(=O)O; Abu = CC[C@H](N)C(=O)O; Dap = NC[C@H](N)C(=O)O
# Tests used:
# A. baumannii NCTC 13424 = type: cell-based
# Protocol: (§1) The inoculum was prepared by making a direct suspension of isolated colonies (selected from an 18-24 hour Mueller-Hinton agar plate) adjusted to the 0.5 McFarland standard. […] The assays were performed in duplicate. […] The MIC values are quoted in μg/mL.
# [1] = system: A. baumannii ATCC BAA-747; type: cell-based
# Protocol: as §1
# E. coli ATCC 25922 = type: cell-based
# Protocol: as §1
# P. aeruginosa ATCC 27853 = type: cell-based; conditions: cation-adjusted Mueller-Hinton Broth, 18-20 h, 35° C.
# Protocol: as §1
# K. pneumoniae ATCC 13822 = type: cell-based
# Protocol: as §1
# P. aeruginosa CCUG 59347 = type: cell-based
# Protocol: (§2) The inoculum was prepared by making a direct suspension of isolated colonies (selected from an 18-24 hour Mueller-Hinton agar plate) adjusted to the 0.5 McFarland standard. […] The assays were performed in duplicate. […] Several of the compounds were subjected to multiple tests, and where this is the case, the MIC presented is the median value obtained. The MIC values are quoted in μg/mL.
# E. coli CA58 = type: cell-based
# Protocol: as §2
# K. pneumoniae CA64 = type: cell-based
# Protocol: as §2
# [2] = Renal toxicity of Example 24 vs PMB after four doses in mouse; type: in vivo, mouse; conditions: mouse, in vivo, sc
# Protocol: Immediately after the fourth dose mice were transferred to metabolic cages and urine collected for 24 h. for determination of urinary biomarkers. After urine collection mice were sacrificed for renal histopathology.
# The urine biomarkers were normalized to urinary creatinine.
# HK-2 cells = assay: In vitro renal cell toxicity assay (HK-2); type: cell-based
# Protocol: The in vitro renal cell toxicity assay was performed according to the following protocol. […] Cells were seeded at 7,500 cells per well in 96-well plates and allowed to adhere overnight. […] Water and DMSO levels were kept constant at 5% and 0.5% respectively. The test compounds were incubated with cells for 24 h at 37° C. 5% CO2 in a humidified atmosphere. […] Media only background values were subtracted before the data was analysed using GraphPad Prism. Individual values were normalised to the vehicle control wells for each compound. Compound concentration values were plotted as log values to enable a dose-response curve to be fitted. The bottom of the curve was constrained to zero and IC50 values were determined. IC50 values are expressed relative to that for PMB in the same experiment. Where multiple determinations have been made, median values are presented.
# [3] = Kidney drug level after subcutaneous dose in mouse; type: in vivo; conditions: mouse, in vivo, sc, 17.2 mg/kg
# Protocol: Four hours after dosing the animals were euthanised and kidneys removed, trimmed of fat and connective tissue, weighed and immediately snap-frozen. After thawing at room temperature, pairs of kidneys from each animal were placed in 2 mL conical tubes containing pre-weighed ceria-stabilised zirconium oxide beads. […] After 10 min. centrifugation at 13,000 rpm and 6° C., 200 μl of the supernatants were transferred into glass inserts and analysed by LC-MS-MS.
# [4] = cation-adjusted Mueller-Hinton Broth, 18-20 h, 35° C.
compound,measurement,setting,value
"CC(C)C[C@@H]1NC(=O)[C@@H](Cc2ccccc2)NC(=O)[C@H](CCN)NC(=O)[C@@H](NC(=O)[C@H](CN)NC(=O)[C@@H](NC(=O)C[C@@H](CN)c2ccccc2Cl)[C@@H](C)O)CCNC(=O)[C@H]([C@@H](C)O)NC(=O)[C@H](CCN)NC(=O)[C@H](CCN)NC1=O [Example 4, (R)-4-amino-3-(2- chlorophenyl)butanoyl- Thr-Dap-Cyclo[Dab- Dab-DPhe-Leu-Dab- Dab-Thr]] (X11-T[Dap][Dab][Dab][dF]L[Dab][Dab]T; lactam 3-C)",MIC A. baumannii NCTC 13424,A. baumannii NCTC 13424; [4],1 µg/mL
same,MIC A. baumannii ATCC BAA-747,[1]; [4],1 µg/mL
same,MIC E. coli ATCC 25922,E. coli ATCC 25922; [4],0.5 µg/mL
same,MIC P. aeruginosa ATCC 27853,P. aeruginosa ATCC 27853,0.25 µg/mL
same,MIC K. pneumoniae ATCC 13822,K. pneumoniae ATCC 13822; [4],0.25 µg/mL
same,MIC P. aeruginosa CCUG 59347,P. aeruginosa CCUG 59347; [4],0.5 µg/mL
same,MIC E. coli CA58,E. coli CA58; [4],16 µg/mL
same,MIC K. pneumoniae CA64,K. pneumoniae CA64; [4],16 µg/mL
"CC(C)C[C@@H]1NC(=O)[C@@H](Cc2ccccc2)NC(=O)[C@H](CCN)NC(=O)[C@@H](NC(=O)[C@H](CN)NC(=O)[C@@H](NC(=O)C[C@@H](CN)Cc2cccc(Cl)c2)[C@@H](C)O)CCNC(=O)[C@H]([C@@H](C)O)NC(=O)[C@H](CCN)NC(=O)[C@H](CCN)NC1=O [Example 12, (S)-4-amino-3-(3- chlorobenzyl)butanoyl- Thr-Dap-Cyclo[Dab- Dab-DPhe-Leu-Dab- Dab-Thr]. Isomer 2] (X16-T[Dap][Dab][Dab][dF]L[Dab][Dab]T; lactam 3-C)",MIC A. baumannii NCTC 13424,A. baumannii NCTC 13424; NCTC 13424,0.25 µg/mL
same,MIC A. baumannii ATCC BAA-747,[1]; ATCC BAA-747,0.25 µg/mL
same,MIC E. coli ATCC 25922,E. coli ATCC 25922; ATCC 25922,0.5 µg/mL
same,MIC K. pneumoniae ATCC 13822,K. pneumoniae ATCC 13822; ATCC 13822,0.5 µg/mL
same,MIC P. aeruginosa CCUG 59347,P. aeruginosa CCUG 59347; CCUG 59347,0.5 µg/mL
same,MIC E. coli CA58,E. coli CA58; CA58,4 µg/mL
same,MIC K. pneumoniae CA64,K. pneumoniae CA64; CA64,8 µg/mL
"CC[C@@H]1NC(=O)[C@@H](CC(C)C)NC(=O)[C@H](CCN)NC(=O)[C@@H](NC(=O)[C@H](CN)NC(=O)[C@@H](NC(=O)C[C@H](CN)c2cccc(-c3ccccc3)c2)[C@@H](C)O)CCNC(=O)[C@H]([C@@H](C)O)NC(=O)[C@H](CCN)NC(=O)[C@H](CCN)NC1=O [Example 24, (S)-3-(1,1′-biphenyl- 3-yl)-4-aminobutanoyl-Thr- Dap-Cyclo[Dab-Dab- DLeu-Abu-Dab-Dab- Thr]] (X2-T[Dap][Dab][Dab][dL][Abu][Dab][Dab]T; lactam 3-C)",MIC A. baumannii NCTC 13424,A. baumannii NCTC 13424; NCTC 13424,0.06 µg/mL
same,MIC A. baumannii ATCC BAA-747,[1]; ATCC BAA-747,0.03 µg/mL
same,MIC K. pneumoniae ATCC 13822,K. pneumoniae ATCC 13822; ATCC 13822,0.25 µg/mL
same,MIC P. aeruginosa CCUG 59347,P. aeruginosa CCUG 59347; CCUG 59347,0.25 µg/mL
same,MIC E. coli CA58,E. coli CA58; CA58,4 µg/mL
same,MIC K. pneumoniae CA64,K. pneumoniae CA64; CA64,16 µg/mL
same,Basophilic Tubules (cortex) (animals affected),[2]; 25 mg/kg,0/5
same,Mitotic Figures increased (animals affected),[2]; 25 mg/kg,0/5
same,"Tubular Degeneration/necrosis (histopathology, animals affected)",[2]; 25 mg/kg,0/5
same,Urine Albumin,[2]; 25 mg/kg,4.78
same,Urine Cystatin C,[2]; 25 mg/kg,31.04
same,Urine Kim-1,[2]; 25 mg/kg,27.61
same,Urine NGAL,[2]; 25 mg/kg,0.00
same,Urine β-2 microglobulin,[2]; 25 mg/kg,0.05
same,Basophilic Tubules (cortex) (animals affected),[2]; 50 mg/kg,2/5 (2 min)
same,Mitotic Figures increased (animals affected),[2]; 50 mg/kg,2/5 (2 min)
same,"Tubular Degeneration/necrosis (histopathology, animals affected)",[2]; 50 mg/kg,2/5 (2 min)
same,Urine Albumin,[2]; 50 mg/kg,6.95
same,Urine Cystatin C,[2]; 50 mg/kg,33.97
same,Urine Kim-1,[2]; 50 mg/kg,171.59
same,Urine NGAL,[2]; 50 mg/kg,0.63
same,Urine β-2 microglobulin,[2]; 50 mg/kg,13.22
same,Basophilic Tubules (cortex) (animals affected),[2]; 75 mg/kg,5/5 (2 min/
same,Mitotic Figures increased (animals affected),[2]; 75 mg/kg,5/5 (5 min)
same,"Tubular Degeneration/necrosis (histopathology, animals affected)",[2]; 75 mg/kg,5/5 (1 min/
same,Urine Albumin,[2]; 75 mg/kg,10.93
same,Urine Cystatin C,[2]; 75 mg/kg,81.44
same,Urine Kim-1,[2]; 75 mg/kg,"1,203.41"
same,Urine NGAL,[2]; 75 mg/kg,3.71
same,Urine β-2 microglobulin,[2]; 75 mg/kg,68.51
same,HK-2 rel to PMB,HK-2 cells,21.8
same,tissue level at time at 4 h,[3],203000 ng/g
"CC[C@@H]1NC(=O)[C@@H](CC(C)C)NC(=O)[C@H](CCN)NC(=O)[C@@H](NC(=O)[C@H](CN)NC(=O)[C@@H](NC(=O)C[C@@H](CN)c2cccc(Br)c2)[C@@H](C)O)CCNC(=O)[C@H]([C@@H](C)O)NC(=O)[C@H](CCN)NC(=O)[C@H](CCN)NC1=O [Example 33, (R)-4-amino-3-(3- bromophenyl)butanoyl- Thr-Dap-Cyclo[Dab- Dab-DLeu-Abu-Dab- Dab-Thr],] (X12-T[Dap][Dab][Dab][dL][Abu][Dab][Dab]T; lactam 3-C)",MIC A. baumannii NCTC 13424,A. baumannii NCTC 13424; [4],1 µg/mL
same,MIC A. baumannii ATCC BAA-747,[1]; [4],1 µg/mL
same,MIC E. coli ATCC 25922,E. coli ATCC 25922; [4],0.5 µg/mL
same,MIC P. aeruginosa ATCC 27853,P. aeruginosa ATCC 27853,0.5 µg/mL
same,MIC K. pneumoniae ATCC 13822,K. pneumoniae ATCC 13822; [4],0.5 µg/mL
same,MIC P. aeruginosa CCUG 59347,P. aeruginosa CCUG 59347; [4],0.5 µg/mL
same,MIC E. coli CA58,E. coli CA58; [4],64 µg/mL
same,MIC K. pneumoniae CA64,K. pneumoniae CA64; [4],16 µg/mL
